Test results as given in patent publication US4616007A, “Heterocyclthio compounds, process for their manufacture, pharmaceutical preparations that contain these compounds, and the use of the latter” (Ciba-Geigy Corporation, priority 1982, dated 1986).

Tests used:
[1] = tested on: Staphylococcus aureus 2999i+p+; assay: in vitro antibacterial activity (MIC); assay type: cell-based
[2] = tested on: Staphylococcus aureus 10 B; assay: in vitro antibacterial activity (MIC); assay type: cell-based
[3] = tested on: Pseudomonas aeruginosa ATCC 12055; assay: in vitro antibacterial activity (MIC); assay type: cell-based; conditions: ATCC12055
[4] = tested on: Clostridium perfringens 194; assay: microbe, parasite or virus in culture; assay type: cell-based
Proteus rettgeri 856 = assay: in vitro antibacterial activity (MIC); assay type: cell-based; conditions: Providencia rettgeri
[5] = tested on: Pseudomonas aeruginosa K 799/61; assay: in vitro antibacterial activity (MIC); assay type: cell-based; conditions: K799/61
[6] = tested on: Enterobacter cloacae ATCC 13047; assay: in vitro antibacterial activity (MIC); assay type: cell-based; conditions: ATCC13047
Escherichia coli 16 = assay: in vitro antibacterial activity (MIC); assay type: cell-based
Proteus mirabilis 1219 = assay: in vitro antibacterial activity (MIC); assay type: cell-based
[7] = tested on: Streptococcus pyogenes Aronson; assay: in vivo systemic infection of mice
Text: (§1) The compounds of the formula I have valuable pharmacological properties, or can be used as intermediates for the manufacture of such compounds having valuable pharmacological properties. Compounds of the formula I in which R1 represents hydrogen or methyl, R2 represents hydroxy, R3 represents carboxy, or an esterified carboxy group that can be cleaved under physiological conditions, and R4 has the meaning given under formula I, and pharmacologically acceptable salts of such compounds having salt-forming groups have anti-bacterial activity. For example, they are effective in vitro against gram-positive and gram-negative cocci, for example Staphylococcus aureus, Streptococcus pyogenes, Streptococcus pneumoniae, and Streptococcus faecalis, and against gram-negative rod-shaped bacilli, such as Enterobacteriaceae, Haemophilus influenzae and Pseudomonas aeruginosa, and anaerobes, for example Bacteroides sp., in minimum concentrations of from approximately 0.02 to approximately 64 μg/ml. In vivo, in the case of systemic infection of mice, for example by Staphylococcus aureus or Streptococcus pyogenes, on subcutaneous or oral administration of compounds of the invention ED50 values of from approximately 8.5 to approximately 100 mg/kg result.
(§2) In vivo in the systemic infection of mice, the following activity is found: […]

[8] = tested on: Streptococcus faecalis D 3; assay: in vitro antibacterial activity (MIC); assay type: cell-based; conditions: Enterococcus faecalis, D3
Proteus mirabilis 774 = assay: in vitro antibacterial activity (MIC); assay type: cell-based
[9] = tested on: Bacteroides fragilis L 01; assay: in vitro antibacterial activity (MIC); assay type: cell-based; conditions: L01
[10] = tested on: Streptococcus pneumoniae III/84; assay: in vitro antibacterial activity (MIC); assay type: cell-based
[11] = tested on: Enterobacter cloacae P 99; assay: in vitro antibacterial activity (MIC); assay type: cell-based; conditions: P99
Escherichia coli B-1385 = assay: in vitro antibacterial activity (MIC); assay type: cell-based; conditions: B1385
Text: as §1
(§3) For example, in vitro, sodium (5R,6S)-2-[3-(1-methyltetrazol-5-ylthio)-propyl]-6-hydroxymethyl-2-penem-3-carboxylate (compound 1) and sodium (5R,6S)-2-[3-(1-dimethylaminoethyltetrazol-5-ylthio)-propyl]-6-hydroxymethyl-2-penem-3-carboxylate (compound 2) and sodium (5R,6S)-2-[3-(1-methyltetrazol-5-ylthio)-ethyl-6-hydroxymethyl-2-penem-3-carboxylate (compound 3), have the following activity: […]

[12] = tested on: Staphylococcus aureus A 124; assay: in vitro antibacterial activity (MIC); assay type: cell-based; conditions: A124
Text: as §1, §3

Escherichia coli UB 1005 = assay: in vitro antibacterial activity (MIC); assay type: cell-based; conditions: UB1005
Text: as §1, §3

[13] = tested on: Staphylococcus aureus Wood 46; assay: in vitro antibacterial activity (MIC); assay type: cell-based; conditions: WOOD46
Text: as §1, §3

Escherichia coli DC 2 = assay: in vitro antibacterial activity (MIC); assay type: cell-based; conditions: DC2
Text: as §1, §3

Escherichia coli 2018 [14] = assay: in vitro antibacterial activity (MIC); assay type: cell-based
Text: as §1, §3

[15] = tested on: Neisseria meningitidis 1316; assay: in vitro antibacterial activity (MIC); assay type: cell-based
Proteus morganii 1518 = assay: in vitro antibacterial activity (MIC); assay type: cell-based; conditions: Morganella morganii
[16] = tested on: Klebsiella pneumoniae 327; assay: in vitro antibacterial activity (MIC); assay type: cell-based
Escherichia coli 205 = assay: in vitro antibacterial activity (MIC); assay type: cell-based
Serratia marcescens 344 = assay: in vitro antibacterial activity (MIC); assay type: cell-based
[17] = tested on: Streptococcus pyogenes Aronson; assay: in vitro antibacterial activity (MIC); assay type: cell-based
[18] = tested on: Escherichia coli 205 R+TEM; assay: in vitro antibacterial activity (MIC); assay type: cell-based
Proteus morganii 2359 = assay: in vitro antibacterial activity (MIC); assay type: cell-based; conditions: Morganella morganii
[19] = tested on: Haemophilus influenzae NCTC 4560; assay: in vitro antibacterial activity (MIC); assay type: cell-based; conditions: NCTC4560
[20] = tested on: Neisseria gonorrhoeae 1317-4; assay: in vitro antibacterial activity (MIC); assay type: cell-based; conditions: 13174
[21] = tested on: Staphylococcus aureus 10 B; assay: in vivo systemic infection of mice
Text: as §1, §2

Escherichia coli 2018 [22] = assay: in vivo systemic infection of mice
Text: as §1, §2

Row | Compound | MIC [1] [µg/mL] | MIC [2] [µg/mL] | MIC [3] [µg/mL] | MIC [4] [µg/mL] | MIC (Proteus rettgeri 856) [µg/mL] | MIC [5] [µg/mL] | MIC [6] [µg/mL] | MIC (Escherichia coli 16) [µg/mL] | MIC (Proteus mirabilis 1219) [µg/mL] | ED50 ([7]; po) [mg/kg] | ED50 ([7]; sc) [mg/kg] | MIC [8] [µg/mL] | MIC (Proteus mirabilis 774) [µg/mL] | MIC [9] [µg/mL] | MIC [10] [µg/mL] | MIC [11] [µg/mL] | MIC (Escherichia coli UB 1005) [µg/mL] | MIC (Escherichia coli DC 2) [µg/mL] | MIC (Proteus morganii 1518) [µg/mL] | MIC [16] [µg/mL] | further results
1 | Cn1nnnc1SCCC1=C(C(=O)[O-])N2C(=O)[C@H](CO)[C@H]2S1.[Na+] [Compound 3, Sodium (5R,6S)-2-[2-(1-Methyltetrazol-5-ylthio)-ethyl]-6-hydroxymethyl-2-penem-3-carboxylate] | 0.05 | 0.05 | > 128 | 0.1 | 4 | 1 | 32 | 4 | 4 | 30 | 12 | 32 | 2 | 0.2 | 0.02 | 16 | 2 | 2 | 4 | 2 | MIC (Escherichia coli B-1385): 2 µg/mL; MIC [12]: 0.5 µg/mL; MIC [13]: 0.05 µg/mL; MIC (Escherichia coli 2018 [14]): 0.5 µg/mL; MIC [15]: 0.02 µg/mL; MIC (Escherichia coli 205): 1 µg/mL; MIC (Serratia marcescens 344): 16 µg/mL; MIC [17]: 0.1 µg/mL; MIC [18]: 2 µg/mL; MIC (Proteus morganii 2359): 2 µg/mL; MIC [19]: 2 µg/mL; MIC [20]: 0.01 µg/mL
2 | Cn1nnnc1SCCCC1=C(C(=O)[O-])N2C(=O)[C@H](CO)[C@H]2S1.[Na+] [Compound 1, sodium (5R,6S)-2-[3-(1-methyltetrazol-5-ylthio)-propyl]-6-hydroxymethyl-2-penem-3-carboxylate] | 0.05 | 0.05 | > 128 | 0.02 | 4 | 2 | 64 | 16 | 8 | ~30 | 8.5 | 64 | 2 | 0.5 | 0.02 | 32 | 4 | 2 | 4 | 4 | ED50 ([21]; po): 90 mg/kg; ED50 ([21]; sc): 60 mg/kg; ED50 (Escherichia coli 2018 [22]; Escherichia coli, 2018, po, p.o.): 90 mg/kg; ED50 (Escherichia coli 2018 [22]; Escherichia coli, 2018, sc, s.c.): 30 to 100 mg/kg; MIC (Escherichia coli 205): 2 µg/mL; MIC (Serratia marcescens 344): 16 µg/mL; MIC [17]: 0.1 µg/mL; MIC [18]: 4 µg/mL; MIC (Proteus morganii 2359): 2 µg/mL; MIC [19]: 0.5 µg/mL
